Test results: the SangsterLogP compilation

Test: method code SF-AS, from PMID: 594121
Details: not given

Row | SMILES | logP
1 | O=C(CN1CCCCC1)Nc1ccccc1Br | 2.94
2 | O=C(CN1CCCCC1)Nc1ccccc1C(F)(F)F | 3.09
3 | Cc1ccc(NC(=O)CN2CCCCC2)cc1 | 2.95
4 | O=C(CN1CCCCC1)Nc1ccc(F)cc1 | 2.7
5 | Cc1cccc(NC(=O)CN2CCCCC2)c1 | 2.97
6 | O=C(CN1CCCCC1)Nc1cccc([N+](=O)[O-])c1 | 2.59
7 | O=C(CN1CCCCC1)Nc1ccccc1F | 2.16
8 | O=C(CN1CCCCC1)Nc1cccc(C(F)(F)F)c1 | 3.12
9 | CCOc1ccccc1NC(=O)CN1CCCCC1 | 3.04
10 | O=C(CN1CCCCC1)Nc1cccc(F)c1 | 2.85
11 | O=C(CN1CCCCC1)Nc1cccc(Cl)c1 | 3.45
12 | O=C(CN1CCCCC1)Nc1ccccc1[N+](=O)[O-] | 2.75
13 | COc1ccccc1NC(=O)CN1CCCCC1 | 2.85
14 | O=C(CN1CCCCC1)Nc1ccccc1Cl | 2.76
15 | Cc1ccccc1NC(=O)CN1CCCCC1 | 2.26
16 | O=C(CN1CCCCC1)Nc1ccc(C(F)(F)F)cc1 | 3.06
17 | COc1cccc(NC(=O)CN2CCCCC2)c1 | 2.71
18 | CCOc1cccc(NC(=O)CN2CCCCC2)c1 | 3.17

Same assay, conditions: pH 7.4

Row | SMILES | logD
19 | O=C(CN1CCCCC1)Nc1ccc([N+](=O)[O-])cc1 | 2.25
20 | O=C(CN1CCCCC1)Nc1ccc(Br)cc1 | 2.88
21 | O=C(CN1CCCCC1)Nc1ccccc1 | 2.41
22 | O=C(CN1CCCCC1)Nc1ccc(I)cc1 | 3.21
23 | O=C(CN1CCCCC1)Nc1cccc(I)c1 | 3.23
24 | CCOc1ccc(NC(=O)CN2CCCCC2)cc1 | 2.82
25 | O=C(CN1CCCCC1)Nc1cccc(Br)c1 | 2.93
